Here are results for four compounds from patent publication US7351744B2, “Naphthalene derivatives as termite repellents and toxicants” (Board of Supervisors of Louisiana State University and …, priority 2003, dated 2008).

Molecules are shown by their SMILES.

A short description of data set [1]: Longevity and volatility of the eleven chemicals. It counts as physicochemical. Particulars: among the eleven chemicals tested.
Another data set deals with termites. In words: Naphthalene-related compounds, choice of treated or untreated food or sand. Particulars: no repellency up to this concentration; data not shown. Format: in vivo. Here is the method: When termites were given a choice of treated or untreated food or sand, all four chemicals were repellents at concentrations of 40 μg/cm^2 treated filter paper or 100 mg/kg treated sand. […] Methoxynaphthalenes were more volatile than acetonaphthones and could spread more effectively into the untreated chambers. […] (Data not shown)

For data set [2], the system named is Formosan subterranean termites. Particulars: other tested naturally occurring compounds; cited from earlier work.

For the compound `CC(=O)c1cccc2ccccc12` [1′-acetonaphthone], in data set [1], the longevity result is recorded as “highest longevity” and the volatility result is “lowest volatility”.
In the data set with termites, `c1ccc2ccccc2c1` [Napthalene, naphthalene] displayed a concentration showing repellency of over 500 μg/cm^2.
As for `C/C=C(\C)C(=O)O[C@H]1C[C@@H](OC(C)=O)[C@@]2(C(=O)OC)CO[C@H]3[C@@H](O)[C@@](C)([C@]45O[C@@]4(C)[C@H]4C[C@@H]5O[C@@H]5OC=C[C@@]54O)[C@H]4[C@]1(CO[C@]4(O)C(=O)OC)[C@@H]32` [azadirachtin], in data set [2], the “concentration inhibiting tunneling and feeding behaviors” value is on record as 500 mg/kg.
With `C=C(C)[C@@H]1CCC2=CC(=O)C[C@@H](C)[C@]2(C)C1` [nootkatone], in data set [2], the “concentration inhibiting tunneling and feeding behaviors” value is 100 mg/kg.
